Data as given in PubChem BioAssay (NCI).
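Five compound concentrations were applied to cells in 96-well plates for 48 hours; endpoints were derived by simple linear interpolation of the resulting dose-response curve. TGI marks complete inhibition of growth.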

What was measured:
Experiment in all cases: NCI-60 cell line screen, 48 h
HOP-92 NSCLC = tested on: HOP-92 NSCLC
K-562 leukemia = tested on: K-562 leukemia
EKVX NSCLC = tested on: EKVX NSCLC
A549 NSCLC = tested on: A549 NSCLC
SF-539 CNS = tested on: SF-539 CNS
UACC-257 melanoma = tested on: UACC-257 melanoma
OVCAR-3 ovarian = tested on: OVCAR-3 ovarian
NCI-H522 lung = tested on: NCI-H522 lung
T-47D breast = tested on: T-47D breast
M14 melanoma = tested on: M14 melanoma
SNB-19 CNS = tested on: SNB-19 CNS
OVCAR-8 ovarian = tested on: OVCAR-8 ovarian
HT29 colon = tested on: HT29 colon
NCI-H460 lung = tested on: NCI-H460 lung
A498 renal = tested on: A498 renal
BT-549 breast = tested on: BT-549 breast
COLO 205 colon = tested on: COLO 205 colon
NCI/ADR-RES ovarian = tested on: NCI/ADR-RES ovarian
OVCAR-4 ovarian = tested on: OVCAR-4 ovarian
LOX IMVI melanoma = tested on: LOX IMVI melanoma
NCI-H23 lung = tested on: NCI-H23 lung
MALME-3M melanoma = tested on: MALME-3M melanoma
SK-MEL-5 melanoma = tested on: SK-MEL-5 melanoma
CCRF-CEM leukemia = tested on: CCRF-CEM leukemia
UACC-62 melanoma = tested on: UACC-62 melanoma
KM12 colon = tested on: KM12 colon
NCI-H226 lung = tested on: NCI-H226 lung
SNB-75 CNS = tested on: SNB-75 CNS
SK-MEL-28 melanoma = tested on: SK-MEL-28 melanoma
SW-620 colon = tested on: SW-620 colon
U251 CNS = tested on: U251 CNS
SN12C renal = tested on: SN12C renal
SF-268 CNS = tested on: SF-268 CNS
RPMI-8226 leukemia = tested on: RPMI-8226 leukemia
MDA-MB-435 = tested on: MDA-MB-435
SK-OV-3 ovarian = tested on: SK-OV-3 ovarian
786-0 renal = tested on: 786-0 renal
CAKI-1 renal = tested on: CAKI-1 renal
SF-295 CNS = tested on: SF-295 CNS
ACHN renal = tested on: ACHN renal
PC-3 prostate = tested on: PC-3 prostate
TK-10 renal = tested on: TK-10 renal
HCT-116 colon = tested on: HCT-116 colon
SK-MEL-2 melanoma = tested on: SK-MEL-2 melanoma
HCT-15 colon = tested on: HCT-15 colon
UO-31 renal = tested on: UO-31 renal
SR leukemia = tested on: SR leukemia
MCF7 breast = tested on: MCF7 breast
IGROV1 ovarian = tested on: IGROV1 ovarian
HL-60(TB) leukemia = tested on: HL-60(TB) leukemia
HOP-62 NSCLC = tested on: HOP-62 NSCLC
HCC-2998 colon = tested on: HCC-2998 colon
DU-145 prostate = tested on: DU-145 prostate
RXF 393 renal = tested on: RXF 393 renal
MDA-MB-231 breast = tested on: MDA-MB-231 breast
MDA-N = tested on: MDA-N
HS 578T breast = tested on: HS 578T breast
OVCAR-5 ovarian = tested on: OVCAR-5 ovarian

Compound: CC(C)=CCc1c(O)cc2oc(-c3ccc(O)cc3O)cc(=O)c2c1O
- TGI (HOP-92 NSCLC): > 88.6 µM
- TGI (K-562 leukemia): > 59.2 µM
- TGI (EKVX NSCLC): > 100 µM
- TGI (A549 NSCLC): > 100 µM
- TGI (SF-539 CNS): 58.7 µM
- TGI (UACC-257 melanoma): > 83.8 µM
- TGI (OVCAR-3 ovarian): 51.5 µM
- TGI (NCI-H522 lung): 53.6 µM
- TGI (T-47D breast): 49.8 µM
- TGI (M14 melanoma): > 77.9 µM
- TGI (SNB-19 CNS): > 100 µM
- TGI (OVCAR-8 ovarian): > 100 µM
- TGI (HT29 colon): 49.8 µM
- TGI (NCI-H460 lung): > 100 µM
- TGI (A498 renal): > 100 µM
- TGI (BT-549 breast): > 76.2 µM
- TGI (COLO 205 colon): 62.6 µM
- TGI (NCI/ADR-RES ovarian): > 94.4 µM
- TGI (OVCAR-4 ovarian): 50.8 µM
- TGI (LOX IMVI melanoma): 59.1 µM
- TGI (NCI-H23 lung): 58.2 µM
- TGI (MALME-3M melanoma): 53.7 µM
- TGI (SK-MEL-5 melanoma): 38.7 µM
- TGI (CCRF-CEM leukemia): 28.2 µM
- TGI (UACC-62 melanoma): 34.6 µM
- TGI (KM12 colon): 50.8 µM
- TGI (NCI-H226 lung): > 100 µM
- TGI (SNB-75 CNS): 69.1 µM
- TGI (SK-MEL-28 melanoma): 87.8 µM
- TGI (SW-620 colon): > 100 µM
- TGI (U251 CNS): > 100 µM
- TGI (SN12C renal): > 69.1 µM
- TGI (SF-268 CNS): > 100 µM
- TGI (RPMI-8226 leukemia): 41.4 µM
- TGI (MDA-MB-435): > 75.5 µM
- TGI (SK-OV-3 ovarian): > 100 µM
- TGI (786-0 renal): 74.5 µM
- TGI (CAKI-1 renal): > 81.4 µM
- TGI (SF-295 CNS): > 100 µM
- TGI (ACHN renal): 77 µM
- TGI (PC-3 prostate): 98.2 µM
- TGI (TK-10 renal): 69.7 µM
- TGI (HCT-116 colon): 61.1 µM
- TGI (SK-MEL-2 melanoma): 64.7 µM
- TGI (HCT-15 colon): > 63.2 µM
- TGI (UO-31 renal): 93.9 µM
- TGI (SR leukemia): > 65.6 µM
- TGI (MCF7 breast): > 65.6 µM
- TGI (IGROV1 ovarian): > 100 µM
- TGI (HL-60(TB) leukemia): 51 µM
- TGI (HOP-62 NSCLC): > 92.8 µM
- TGI (HCC-2998 colon): 35.1 µM
- TGI (DU-145 prostate): > 84.8 µM
- TGI (RXF 393 renal): 64.8 µM
- TGI (MDA-MB-231 breast): 67.2 µM
- TGI (MDA-N): 72.3 µM
- TGI (HS 578T breast): > 94 µM
- TGI (OVCAR-5 ovarian): 81.3 µM
